Results taken from paper PMC8151276, “An Integrated Approach toward NanoBRET Tracers for Analysis of GPCR Ligand Engagement” (Molecules, 2021).

Legend:
NPY1R = target: T1, NPY1R (Homo sapiens, UniProt P25929); assay: NanoBRET screen HiBiT-NPY1R in HEK293; format: binding; conditions: NPY1R
T1 construct: purchased Promega (in-house HiBiT-GPCR construct library, NanoBRET)
T1 sequence (P25929 1-384): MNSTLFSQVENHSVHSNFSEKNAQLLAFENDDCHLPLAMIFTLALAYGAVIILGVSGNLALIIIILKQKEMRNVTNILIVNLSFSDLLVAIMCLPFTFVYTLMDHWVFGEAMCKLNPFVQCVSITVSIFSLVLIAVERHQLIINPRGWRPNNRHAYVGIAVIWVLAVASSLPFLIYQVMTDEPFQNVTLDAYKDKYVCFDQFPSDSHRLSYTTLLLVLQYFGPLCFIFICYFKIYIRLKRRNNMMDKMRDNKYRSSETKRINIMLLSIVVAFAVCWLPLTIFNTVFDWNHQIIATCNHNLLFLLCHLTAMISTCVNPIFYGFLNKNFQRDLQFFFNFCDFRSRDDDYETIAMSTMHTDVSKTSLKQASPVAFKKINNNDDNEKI
Experimental: (§1) Each tracer candidate was screened across the entire library of HiBiT-GPCR constructs using NanoBRET as the detection modality. As depicted in Figure 4A, the specificity of interactions was evaluated through decrease in BRET due to competitive displacement of a bound tracer by excess parental compound. Each tracer was analyzed for binding to each HiBiT-GPCR fusion in the absence and in the presence of competing parental compound. Briefly, HEK293 cells were transfected with HiBiT-GPCR constructs diluted into promoterless DNA to reduce expression and maximize translocation to the cell surface. Each tracer candidate was then screened at concentrations of 1 μM and 0.1 μM across cells expressing these fusions. Cells were treated for 1.5 h with tracer either alone or in the presence of 20 μM competing parental compound (i.e., control). BRET was measured upon addition of purified LgBiT and subsequent complementation with HiBiT genetically fused to a GPCR. The specificity of interactions was assessed through a decrease in BRET signal due to competitive displacement of the bound tracer. To further gauge the robustness of these interactions, the fold response over the control (i.e., BRETtracer/BRETcontrol) was calculated. We chose a 1.5-fold response, which translates to ≥7-fold signal over noise as the minimal threshold required to score an interaction as positive. […]. Below we highlight the screening results obtained for our exemplary fluorescent tracers based on Clozapine, Amitriptyline and AZD1283.
(§2) HiBiT-GPCR DNA constructs were diluted in 10 mM Tris pH 8 to a final concentration of 0.01 μg/μL, arrayed in 96-well plates and stored at −20 °C. For transfection, HEK293 cells were suspended in Opti-MEM (without phenol red) supplemented with 2% fetal bovine serum (Seradigm) and 100 units/mL penicillin–streptomycin (Gibco) at a final concentration of 220,000 cells/mL and dispensed into white 96-well plates at 90 μL/well. Subsequent transfections and screens were carried using an Agilent Bravo Automated Liquid Handling Platform. First, the 96-well HiBiT DNA arrays were diluted 25-fold in Opti-MEM (without serum or phenol red) to a final concentration of 0.0004 μg/μL and 20 μL of the diluted DNAs were transferred into new 96-well plates. Next, promoterless carrier DNA (1 μg/μL) was diluted 25-fold (0.04 μg/μL) and then dispensed into the diluted arrays at 20 μL/well. Following brief mixing, Viafect transfection reagent (Promega) diluted 16-fold into Opti-MEM was dispensed into the plates at 40 μL/well. After mixing by pipetting, plates were incubated for 10 min on the pipetting station deck. The DNA-transfection reagent complexes were then added to plates containing cells. To facilitate the screen, 10 μL of DNA-transfection reagent complexes were added in duplicates to the top 4 and bottom 4 rows, resulting in two identical 48-well arrays per plate. Plates with transfected cells were incubated for 18–20 h at 37 °C/5% CO2. A screen of each tracer across the entire library using two different concentrations requires duplicate plates of transfected cells. Depending on the number of tracers being screened, transfections can be scaled up using the same ratios. The next day, for each tracer, four 20× screening solutions in tracer dilution buffer (Promega) were prepared: two duplicates at final concentration of 20 μM and two duplicates at a final concentration of 2 μM. A competing unmodified compound was added to one of each duplicate at a final concentration of 400 μM. The four resulting solutions were diluted 4-fold in Opti-MEM without serum or phenol red to generate 5× solutions (5 µM and 0.5 µM tracer +/− 100 μM competing compound). To screen the library, a BioTek MultiFlo FX liquid dispenser was used to dispense 22.5 µL of tracer solution to the top 4 rows and 22.5 µL tracer + competing compound solution to the 4 bottom rows. Plates were briefly mixed on an orbital shaker and incubated for 1.5 h at room temperature. […]

ACKR3 = target: T2, ACKR3 (Homo sapiens, UniProt P25106); assay: NanoBRET screen HiBiT-ACKR3 in HEK293; format: binding; conditions: ACKR3
T2 construct: purchased Promega (in-house HiBiT-GPCR construct library, NanoBRET)
Experimental: as §1, §2

T2 sequence (P25106 whole entry): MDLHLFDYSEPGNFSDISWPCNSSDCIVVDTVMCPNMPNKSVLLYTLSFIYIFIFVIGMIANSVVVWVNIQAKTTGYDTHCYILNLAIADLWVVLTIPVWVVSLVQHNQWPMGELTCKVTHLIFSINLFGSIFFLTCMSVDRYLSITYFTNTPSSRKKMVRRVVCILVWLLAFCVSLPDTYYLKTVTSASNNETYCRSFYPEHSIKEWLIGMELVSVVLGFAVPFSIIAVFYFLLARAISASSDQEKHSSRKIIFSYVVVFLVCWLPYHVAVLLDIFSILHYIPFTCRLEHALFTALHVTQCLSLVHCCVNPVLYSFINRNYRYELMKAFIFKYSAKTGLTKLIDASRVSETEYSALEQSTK

CCCn1c(=O)c2[nH]c(-c3ccc(OCC(=O)NCCNC(=O)CCOCCNC(=O)c4ccc(CNC(=O)CCc5ccc6n5[B-](F)(F)[N+]5=C(c7ccc[nH]7)C=CC5=C6)cc4)cc3)nc2n(CCC)c1=O [XAC-3-NB590]
NanoBRET Fold Response (NPY1R; tracer 0.1μM): 1.01
NanoBRET Fold Response (NPY1R; tracer 1μM): 0.95
NanoBRET Fold Response (ACKR3; tracer 0.1μM): 1.02
NanoBRET Fold Response (ACKR3; tracer 1μM): 1.49
